Patent publication US11884675B2, “Heterocyclic compounds as triggering receptor expressed on myeloid cells 2 agonists and methods of use” (AMGEN INC., priority 2020, dated 2024)

Biological target: hTREM2 (Homo sapiens, UniProt Q9NZC2)
Assay: TREM2 agonist potency by Syk phosphorylation (AlphaLisa) in HEK293T-hTREM2 cells, used for Examples 306-429
Assay type: cell-based
Design: expressed in transfected cells; host or cells: HEK293T (HEK293T-hTREM2 cells)
Conditions: HEK293 Cells
Description: In vitro Measurement of Triggering Receptor Expressed on Myeloid Cells 2 activity using cellular phosphorylation of Spleen Tyrosine Kinase (“Syk”) Assays used for Examples 306-429
Measurement of TREM2 agonist potency was done using a HEK cell line expressing human TREM2 and DAP12 (HEK293T-hTREM2 cells). Binding of small molecules to, and activation of, TREM2 increases the phosphorylation of Syk. The resultant levels of Syk phosphorylation were measured using a commercial AlphaLisa reagent kit. To perform the assay, HEK-hTREM2 cells were plated at 14,000 cells per well in a 384 well plate, in 25 μL, of complete growth media and incubated at 37° C., 5% CO2 for 20-24 hours. Prior to the assay, test compounds were diluted in the 384 well plates in assay buffer and allowed to equilibrate for 30 minutes. Growth media was removed from cell plates by inversion on blotting paper, and 25 μL of test compounds in assay buffer was added to cells. Cells were incubated for 45 minutes at room temperature. After 45 minutes, assay buffer was removed and 10 μL of lysis buffer was added. Plates were shaken for 20 minutes at 350 RPM at room temperature. After complete lysis, AlphaLisa reagents were added to the lysate, and fluourescence intensity was measured using a Perkin Elmer Envision plate reader. Intensities were used to generate a standard curve, and % activation was calculated. Curve fitting was performed using Prism v9 software, log(agonist) vs response-variable slope (four parameters), and EC50s were calculated from the curve fit.
The results presented in Table 20 have been generated with the in vitro assay described above for Examples 306-429. This assay may be used to test any of the compounds described herein to assess and characterize a compound's ability to act as an agonist of TREM2.

Chain of hTREM2 (Q9NZC2 19-230): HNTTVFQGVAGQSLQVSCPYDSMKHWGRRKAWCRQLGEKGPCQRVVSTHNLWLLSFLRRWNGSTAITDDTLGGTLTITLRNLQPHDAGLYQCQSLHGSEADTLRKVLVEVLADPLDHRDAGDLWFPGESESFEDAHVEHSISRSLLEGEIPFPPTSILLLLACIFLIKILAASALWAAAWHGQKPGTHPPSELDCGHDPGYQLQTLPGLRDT
Chain of hTREM2 (O43914 22-113 partner): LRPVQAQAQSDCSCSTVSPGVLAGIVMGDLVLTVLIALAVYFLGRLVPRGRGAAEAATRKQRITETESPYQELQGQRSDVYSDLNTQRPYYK

EC50 [nM]	SMILES
≤ 50	Cc1nc2cc(N3CCOC(c4cnn(C5CC5)c4)C3)nc(-c3ccc(F)cc3F)c2nc1C (stereo not drawn) [Example 342, 2-(1-cyclopropyl-1H-pyrazol-4-yl)-4-(5-(2,4-difluorophenyl)-2,3-dimethylpyrido[3,4-b]pyrazin-7-yl)morpholine]
50 to 500	Cc1nc2nc([C@@H]3CCO[C@@H](c4cnn(C5CC5)c4)C3)nc(C34CC(C(F)(F)F)(C3)C4)c2nc1C (stereo in doubt) [Example 365, 2-(2-(1-cyclopropyl-1H-pyrazol-4-yl)tetrahydro-2H-pyran-4-yl)-6,7-dimethyl-4-(3-(trifluoromethyl)bicyclo[1.1.1]pentan-1-yl)pteridine]
500 to 3000	Cc1cnc2c(-c3ccc(F)cc3F)nc([C@@H]3CCO[C@@H](c4cnn(C5CC5)c4)C3)nc2n1 [Example 338, 2-((2R,4R)-2-(1-cyclopropyl-1H-pyrazol-4-yl)tetrahydro-2H-pyran-4-yl)-4-(2,4-difluorophenyl)-7-methylpteridine]
≤ 50	Cc1cc(C2CN(c3cc4nc(C)c(C)nc4c(-c4ccc(C(F)(F)F)nc4)n3)CCO2)ccn1 (stereo not drawn) [Example 312, 4-(2,3-dimethyl-5-(6-(trifluoromethyl)pyridin-3-yl)pyrido[3,4-b]pyrazin-7-yl)-2-(2-methylpyridin-4-yl)morpholine]
≤ 50	Cc1cc(C2CN(c3cc4nc(C)cnc4c(-c4ccc(F)cc4F)n3)CCO2)ccn1 (stereo not drawn) [Example 313, 4-(5-(2,4-difluorophenyl)-2-methylpyrido[3,4-b]pyrazin-7-yl)-2-(2-methylpyridin-4-yl)morpholine]
≤ 50	Cc1nc2nc(C3CCOC(c4cnn(C5CC5)c4)C3)cc(-c3ccc(Cl)cc3F)c2nc1C (stereo not drawn) [Example 402, 8-(4-chloro-2-fluorophenyl)-6-(2-(1-cyclopropyl-1H-pyrazol-4-yl)tetrahydro-2H-pyran-4-yl)-2,3-dimethylpyrido[2,3-b]pyrazine]
≤ 50	[2H]C([2H])([2H])c1nc2nc([C@H]3CCO[C@@H](c4ccnc(C)c4)C3)nc(-c3ccc(Cl)c(F)c3F)c2nc1C([2H])([2H])[2H] (racemic) [Example 395, 4-(4-chloro-2,3-difluoro-phenyl)-2-[2-(2-methyl-4-pyridyl)tetrahydropyran-4-yl]-6,7-bis(trideuteriomethyl)pteridine]
50 to 500	Cc1cc(C2CC(c3nc(-c4ccc(C(F)(F)F)nc4)c4ccc(C)nc4n3)CCO2)ccn1 (stereo not drawn) [Example 324, 7-methyl-2-(2-(2-methylpyridin-4-yl)tetrahydro-2H-pyran-4-yl)-4-(6-(trifluoromethyl)pyridin-3-yl)pyrido[2,3-d]pyrimidine]
≤ 50	Cc1cc([C@H]2C[C@@H](c3nc(-c4ccc(Cl)c(F)c4F)c4nc(C)c(C)nc4n3)CCO2)ccn1 [Example 397, 4-(4-chloro-2,3-difluorophenyl)-6,7-dimethyl-2-((2R,4S)-2-(2-methylpyridin-4-yl)tetrahydro-2H-pyran-4-yl)pteridine]
≤ 50	Cc1cc([C@H]2CN(c3cc4nc(C)cnc4c(-c4ccc(F)cc4F)n3)CCO2)ccn1 [Example 334, (S)-4-(5-(2,4-difluorophenyl)-2-methylpyrido[3,4-b]pyrazin-7-yl)-2-(2-methylpyridin-4-yl)morpholine]
≤ 50	Cc1cnc2c(-c3ccc(Cl)cc3F)nc(N3C[C@H](C)O[C@@H](c4cnn(C5CC5)c4)C3)nc2n1 (racemic) [Example 374, 4-(4-(4-chloro-2-fluorophenyl)-7-methylpteridin-2-yl)-2-(1-cyclopropyl-1H-pyrazol-4-yl)-6-methylmorpholine]
50 to 500	Cc1cc([C@@H]2CN(c3nc(C45CC(C(F)(F)F)(C4)C5)c4ncc(C)nc4n3)CCO2)ccn1 [Example 353, (R)-4-(7-methyl-4-(3-(trifluoromethyl)bicyclo[1.1.1]pentan-1-yl)pteridin-2-yl)-2-(2-methylpyridin-4-yl)morpholine]
500 to 3000	Cc1cc([C@@H]2CN(c3cc4nc(C)cnc4c(-c4ccc(F)cc4F)n3)CCO2)ccn1 [Example 333, (R)-4-(5-(2,4-difluorophenyl)-2-methylpyrido[3,4-b]pyrazin-7-yl)-2-(2-methylpyridin-4-yl)morpholine]
50 to 500	Cc1nc2cc(N3CCO[C@H](c4cnn(C5CC5)c4)C3)nc(-c3ccc(C(F)(F)F)nc3)c2nc1C [Example 385, (2R)-2-(1-cyclopropylpyrazol-4-yl)-4-[2,3-dimethyl-5-[6-(trifluoromethyl)-3-pyridyl]pyrido[3,4-b]pyrazin-7-yl]morpholine]
50 to 500	Cc1cnc2c(-c3ccc(F)cc3F)nc(N3C[C@H](C)O[C@@H](c4cnn(C5CC5)c4)C3)nc2n1 (racemic) [Example 370, 2-(1-cyclopropyl-1H-pyrazol-4-yl)-4-(4-(2,4-difluorophenyl)-7-methylpteridin-2-yl)-6-methylmorpholine]
50 to 500	Cc1cnc2c(-c3ccc(Cl)cc3F)nc(N3C[C@@H](C)O[C@@H](c4cnn(C5CC5)c4)C3)cc2n1 (racemic) [Example 368, 4-(5-(4-chloro-2-fluorophenyl)-2-methylpyrido[3,4-b]pyrazin-7-yl)-2-(1-cyclopropyl-1H-pyrazol-4-yl)-6-methylmorpholine]
≤ 50	Cc1cc([C@H]2C[C@@H](c3cc4nc(C)c(C)cc4c(-c4ccc(F)cc4F)n3)CCO2)ccn1 (racemic) [Example 399, 5-(2,4-difluorophenyl)-2,3-dimethyl-7-[2-(2-methyl-4-pyridyl)tetrahydropyran-4-yl]-1,6-naphthyridine]
500 to 3000	Cc1cnc2c(C34CC(C(F)(F)F)(C3)C4)nc([C@@H]3CCO[C@@H](c4cnn(C5CC5)c4)C3)nc2n1 [Example 406, 2-((2R,4R)-2-(1-cyclopropyl-1H-pyrazol-4-yl)tetrahydro-2H-pyran-4-yl)-7-methyl-4-(3-(trifluoromethyl)bicyclo[1.1.1]pentan-1-yl)pteridine]
500 to 3000	Cc1cc(C2CN(c3cc4nc(C)cnc4c(C45CC(C(F)(F)F)(C4)C5)n3)CCO2)ccn1 (stereo not drawn) [Example 376, 2-(2-methyl-4-pyridyl)-4-[2-methyl-5-[3-(trifluoromethyl)-1-bicyclo[1.1.1]pentanyl]pyrido[3,4-b]pyrazin-7-yl]morpholine]
50 to 500	Cc1cc([C@@H]2C[C@H](c3cc4nc(C)c(C)nc4c(-c4ccc(F)cc4F)n3)CCO2)ccn1 [Example 316, 5-(2,4-difluorophenyl)-2,3-dimethyl-7-[(2S,4R)-2-(2-methyl-4-pyridyl)tetrahydropyran-4-yl]pyrido[3,4-b]pyrazine]
50 to 500	Cc1ccc2c(C34CC(C(C)C)(C3)C4)nc([C@H]3CCO[C@@H](c4cnn(C5CC5)c4)C3)nc2n1 [Example 428, 2-((2R,4S)-2-(1-cyclopropyl-1H-pyrazol-4-yl)tetrahydro-2H-pyran-4-yl)-4-(3-isopropylbicyclo[1.1.1]pentan-1-yl)-7-methylpyrido[2,3-d]pyrimidine]
≤ 50	Cc1cnc2c(C34CC(C(F)(F)F)(C3)C4)nc(N3C[C@H](C)O[C@@H](c4cnn(C5CC5)c4)C3)nc2n1 [Example 404, (2S,6S)-2-(1-cyclopropyl-1H-pyrazol-4-yl)-6-methyl-4-(7-methyl-4-(3-(trifluoromethyl)bicyclo[1.1.1]pentan-1-yl)pteridin-2-yl)morpholine]
≤ 50	Cc1nc2nc(N3C[C@H](C)O[C@@H](c4cnn(C5CC5)c4)C3)nc(-c3ccc(Cl)cc3F)c2nc1C (racemic) [Example 372, 4-(4-(4-chloro-2-fluorophenyl)-6,7-dimethylpteridin-2-yl)-2-(1-cyclopropyl-1H-pyrazol-4-yl)-6-methylmorpholine]
≤ 50	Cc1cc(C2CN(c3nc(-c4cc(F)c(Cl)cc4F)c4nc(C)c(C)nc4n3)CCO2)ccn1 (stereo not drawn) [Example 352, 4-(4-(4-chloro-2,5-difluorophenyl)-6,7-dimethylpteridin-2-yl)-2-(2-methylpyridin-4-yl)morpholine]
≤ 50	Cc1cnc2c(C34CC(C(F)(F)F)(C3)C4)nc([C@H]3CCO[C@@H](c4cnn(C5CC5)c4)C3)cc2n1 (racemic) [Example 386, 2-methyl-7-[2-(1-cyclopropylpyrazol-4-yl)tetrahydropyran-4-yl]-5-[3-(trifluoromethyl)-1-bicyclo[1.1.1]pentanyl]pyrido[3,4-b]pyrazine]
50 to 500	Cc1cc([C@H]2C[C@@H](c3cc4nc(C)cnc4c(-c4ccc(Cl)cc4F)n3)CCO2)ccn1 (racemic) [Example 310, 5-(4-chloro-2-fluorophenyl)-2-methyl-7-(2-(2-methylpyridin-4-yl)tetrahydro-2H-pyran-4-yl)pyrido[3,4-b]pyrazine]
50 to 500	Cc1cnc2c(-c3ccc(C(F)(F)F)nc3)nc(N3CCOC(c4cnn(C5CC5)c4)C3)cc2n1 (stereo not drawn) [Example 340, 2-(1-cyclopropyl-1H-pyrazol-4-yl)-4-(2-methyl-5-(6-(trifluoromethyl)pyridin-3-yl)pyrido[3,4-b]pyrazin-7-yl)morpholine]
